For test [1], the target named is T1, RecQ-like DNA helicase BLM (Homo sapiens, UniProt P54132). The test can be described thus: Inhibition of His-tagged BLM (642 to 1296 residues) (unknown origin) expressed in Escherichia coli BL21 (DE3) cells assessed as reduction in DNA unwinding activity using 5'-biotin-labeled forked DNA as substrate preincubated for 1 hr followed by substrate addition and measured after 1 hr by electrophoretic mobility shift assay.

Test [2] addresses T1, RecQ-like DNA helicase BLM. As to the kind of experiment: Inhibition of BLM in human HCT116 cells assessed as increase in gamma-H2AX level at 2 uM measured after 24 hrs by Western blot analysis. The settings on record: HCT-116. Format: cell-based.
The next test concerns HCT-116. The test can be described thus: Cytotoxicity against human HCT116 cells by MTT assay. The format is functional, cell-based.
Test [3] addresses T1, RecQ-like DNA helicase BLM. The test can be described thus: Inhibition of BLM in human HCT116 cells assessed as down regulation of HRR level at 0.5 uM measured after 24 hrs by luciferase reporter gene assay. Format: cell-based. The conditions noted are these: HCT-116.
Test [4] has as its target T1, RecQ-like DNA helicase BLM. The test can be described thus: Inhibition of BLM in human HCT116 cells assessed as potentiation of olaparib-induced cytotoxicity at 1 to 2 uM measured after 48 hrs by MTT assay. Format: cell-based. The settings on record: HCT-116.
Test [5] concerns RecQ-like DNA helicase BLM (Homo sapiens), P54132 [I1168A]. The test can be described thus: Binding affinity to His-tagged BLM I1168A mutant (unknown origin) expressed in Escherichia coli BL21 (DE3) cells by isothermal calorimetric titration assay.
Sequence of RecQ-like DNA helicase BLM (Homo sapiens), P54132 [I1168A] (P54132 whole entry I1168A): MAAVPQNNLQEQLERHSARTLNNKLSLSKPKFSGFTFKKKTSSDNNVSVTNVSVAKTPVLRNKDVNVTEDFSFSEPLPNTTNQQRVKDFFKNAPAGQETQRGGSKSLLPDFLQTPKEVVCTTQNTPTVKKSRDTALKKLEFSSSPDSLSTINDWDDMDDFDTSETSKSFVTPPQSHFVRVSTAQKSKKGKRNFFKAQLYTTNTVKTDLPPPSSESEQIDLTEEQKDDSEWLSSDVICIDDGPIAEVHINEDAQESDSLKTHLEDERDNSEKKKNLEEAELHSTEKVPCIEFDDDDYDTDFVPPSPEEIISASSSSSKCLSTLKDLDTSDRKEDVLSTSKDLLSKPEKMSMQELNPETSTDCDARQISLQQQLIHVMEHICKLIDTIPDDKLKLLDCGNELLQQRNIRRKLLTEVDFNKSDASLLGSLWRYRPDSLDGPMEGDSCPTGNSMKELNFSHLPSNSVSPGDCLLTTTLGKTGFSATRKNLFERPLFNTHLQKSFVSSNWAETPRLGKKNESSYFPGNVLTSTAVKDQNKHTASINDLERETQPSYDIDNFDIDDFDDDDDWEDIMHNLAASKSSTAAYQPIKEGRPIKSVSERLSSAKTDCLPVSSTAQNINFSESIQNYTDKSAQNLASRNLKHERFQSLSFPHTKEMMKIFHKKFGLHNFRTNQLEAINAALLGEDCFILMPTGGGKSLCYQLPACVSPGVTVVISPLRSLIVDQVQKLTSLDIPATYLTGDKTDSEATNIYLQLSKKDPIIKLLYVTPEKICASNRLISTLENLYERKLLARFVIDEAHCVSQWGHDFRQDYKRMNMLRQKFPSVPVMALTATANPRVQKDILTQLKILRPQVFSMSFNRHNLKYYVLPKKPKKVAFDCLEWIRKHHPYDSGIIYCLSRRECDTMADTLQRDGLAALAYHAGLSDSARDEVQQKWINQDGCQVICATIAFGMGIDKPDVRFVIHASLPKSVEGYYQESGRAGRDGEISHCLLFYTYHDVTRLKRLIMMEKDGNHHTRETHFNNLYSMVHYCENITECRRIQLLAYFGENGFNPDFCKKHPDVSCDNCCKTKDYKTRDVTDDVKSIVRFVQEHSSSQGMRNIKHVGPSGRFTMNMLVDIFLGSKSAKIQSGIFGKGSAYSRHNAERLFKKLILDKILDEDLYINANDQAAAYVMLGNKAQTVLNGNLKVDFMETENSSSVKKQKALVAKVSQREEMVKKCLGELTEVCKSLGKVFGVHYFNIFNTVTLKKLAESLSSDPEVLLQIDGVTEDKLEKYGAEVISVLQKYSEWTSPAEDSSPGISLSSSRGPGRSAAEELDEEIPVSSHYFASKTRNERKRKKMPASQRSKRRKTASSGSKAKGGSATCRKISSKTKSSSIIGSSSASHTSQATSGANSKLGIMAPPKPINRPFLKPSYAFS
Test [6] addresses T1, RecQ-like DNA helicase BLM. As to the kind of experiment: Binding affinity to BLM in human HCT116 cells cotransfected with DSB model and I-SceI plasmid assessed as reduction in recruitment of protein to DSB site in DNA at 1 uM measured after 24 hrs by chromatin immunoprecipitation assay. The conditions noted are these: HCT-116. The format is cell-based.
In test [7] the test system is RecQ-like DNA helicase BLM (Homo sapiens), P54132 [H996A]. As to the kind of experiment: Binding affinity to His-tagged BLM H996A mutant (unknown origin) expressed in Escherichia coli BL21 (DE3) cells by isothermal calorimetric titration assay.
Sequence of RecQ-like DNA helicase BLM (Homo sapiens), P54132 [H996A] (P54132 whole entry H996A): as the sequence (P54132 whole entry I1168A) above, with H996A, A1168I counted along it
Test [8] deals with T1, RecQ-like DNA helicase BLM. The test can be described thus: Binding affinity to BLM in human HCT116 cells cotransfected with DSB model and I-SceI plasmid assessed as reduction in recruitment of protein to DNA region distant from DSB site at 1 uM measured after 24 hrs by chromatin immunoprecipitation assay. The format is cell-based. The conditions noted are these: HCT-116.

The target of test [9] is T1, RecQ-like DNA helicase BLM. As to the kind of experiment: Inhibition of BLM in human HCT116 cells assessed as potentiation of niraparib-induced cytotoxicity at 1 to 2 uM measured after 48 hrs by MTT assay. Format: cell-based. The conditions noted are these: HCT-116.
The target of test [10] is T1, RecQ-like DNA helicase BLM. As to the kind of experiment: Binding affinity to wild-type His-tagged BLM (642 to 1296 residues) (unknown origin) expressed in Escherichia coli BL21 (DE3) cells by isothermal calorimetric titration assay.
For test [11], the target named is T1, RecQ-like DNA helicase BLM. As to the kind of experiment: Inhibition of His-tagged BLM (642 to 1296 residues) (unknown origin) expressed in Escherichia coli BL21 (DE3) cells assessed as reduction in DNA unwinding activity at <10 uM using 5'-biotin-labeled forked DNA as substrate preincubated for 1 hr followed by substrate addition and measured after 1 hr by electrophoretic mobility shift assay.

The target in test [12] is T1, RecQ-like DNA helicase BLM. The test can be described thus: Binding affinity to His-tagged BLM (642 to 1296 residues) (unknown origin) expressed in Escherichia coli BL21 (DE3) cells assessed as inhibition of protein interaction with 5'-biotin-labeled forked DNA measured after 1 hr by ELISA.

Activity calls are given as the source filed them. The calls are words filed in the database; no cut-off is given here.

T1 sequence (P54132 whole entry, the tested form may be a part): as the sequence (P54132 whole entry I1168A) above, with A1168I counted along it

In the case of `CCN(CC)CCCNc1cc2nc3n(c(=O)c2cc1F)CC/C3=C\c1ccc(C(C)C)cc1O`, the IC50 in test [1] stood at 4.2 µM.
With `CCN(CC)CCNc1cc2nc3n(c(=O)c2cc1F)CC/C3=C\c1ccc(C(C)(C)C)cc1`, the half-inhibitory concentration (IC50) in test [1] was 2.7 µM. For the same compound, the inhibition entry in [2] and in [3] was “Active” throughout. Further, the outcome in the test on HCT-116 was Active.
In the case of `CCN(CC)CCCNc1cc2nc3n(c(=O)c2cc1F)CC/C3=C\c1ccc(C(C)C)cc1`, the half-inhibitory concentration (IC50) in [1] worked out at 1.5 µM. In addition, the inhibition result in test [4], in test [9] and in test [3] was “Active” in each case. In addition, the outcome in [5], in test [6], in test [7], in test [8] and in [10] was Active.
Turning to `CCN(CC)CCNc1cc2nc3n(c(=O)c2cc1F)CCC3Cc1ccc(CC(C)C)cc1` (centres undefined), the 50% inhibitory concentration (IC50) in test [1] is more than 10 µM. Further, the “Inhibition (active/not active)” value in [11] is “Active”.
In the case of `CCN(CC)CCCNc1cc2nc(/C=C/c3ccc(C(C)C)cc3)[nH]c(=O)c2cc1F`, the half-maximal inhibitory concentration (IC50) in test [1] is more than 10 µM. The “Inhibition (active/not active)” value in test [11] was “Active”.
For `CCOCCNc1cc2nc3n(c(=O)c2cc1F)CC/C3=C\c1ccc(C(C)C)cc1`, the IC50 in test [1] is more than 10 µM. Moreover, the “Inhibition (active/not active)” value in test [11] is “Active”.
In the case of `CCN(CC)CCNc1cc2nc3n(c(=O)c2cc1F)CCC/C3=C\c1ccc(C(C)C)cc1`, in test [1], the concentration for half-maximal inhibition (IC50) was more than 10 µM. The “Inhibition (active/not active)” value in test [11] was “Active”.
For `CCN(CC)CCNc1cc2nc3n(c(=O)c2cc1F)CC/C3=C\c1ccc(O)cc1O` the same measures were more than 10 µM and “Active”.
For the compound `CCN(CC)CCNc1cc2nc3n(c(=O)c2cc1F)CC/C3=C\c1ccc(OC)cc1`, the “Inhibition (active/not active)” value in [11] is “inactive”.
Regarding `CCN(CC)CCNc1cc2nc3n(c(=O)c2cc1F)CCC3Cc1ccc(C(C)C)cc1` (centres undefined), the 50% inhibitory concentration (IC50) in test [1] was more than 10 µM. Also, the “Inhibition (active/not active)” value in test [11] was “Active”.
For `CC(C)c1ccc(/C=C2\CCn3c2nc2cc(NCCN(C)C)c(F)cc2c3=O)cc1`, the half-inhibitory concentration (IC50) is 2.8 µM in [1] and more than 20 µM in test [12]. The inhibition result in [2] was “inactive”. For the same compound, the result with HCT-116 was Active. Further, the inhibition entry in test [3] was “Active”.
With `CCN(CC)CCNc1cc2nc3n(c(=O)c2cc1F)CC/C3=C\c1cccs1`, the “Inhibition (active/not active)” value in [11] was “inactive”.
On to `CCN(CC)CCCNc1cc2nc(/C=C/c3ccc(C(C)C)cc3)n(CC)c(=O)c2cc1F`, for which the concentration for half-maximal inhibition (IC50) in test [1] was 2.8 µM.
In the case of `CC(C)CCNc1cc2nc3n(c(=O)c2cc1F)CC/C3=C\c1ccc(C(C)C)cc1`, the “Inhibition (active/not active)” value in test [11] is “inactive”.
In the case of `CCN(CC)CCCNc1c2c(nc3ccccc13)/C(=C/c1ccc(CC(C)C)cc1)CC2`, in test [1], the IC50 is more than 10 µM. The “Inhibition (active/not active)” value in test [11] was “Active”.
As to `CCN(CC)CCCNc1c2c(nc3ccccc13)/C(=C/c1ccc(C(C)(C)C)cc1)CC2`, in test [11], the “Inhibition (active/not active)” value was “inactive”.
Regarding `CCN(CC)CCNc1cc2nc3n(c(=O)c2cc1F)CC/C3=C\c1ccc(CC(C)C)cc1`, the IC50 in test [1] was 3.1 µM.
As for `CCN(CC)CCNc1cc2nc3n(c(=O)c2cc1F)CCC3Cc1ccc(C(C)C)cc1O` (centres undefined), the IC50 in test [1] is more than 10 µM. Moreover, the “Inhibition (active/not active)” value in test [11] was “Active”.
As for `CCc1ccc(/C=C2\CCn3c2nc2cc(NCCN(CC)CC)c(F)cc2c3=O)cc1`, the concentration for half-maximal inhibition (IC50) in [1] was 3.2 µM.
With `CCN(CC)CCNc1cc2nc3n(c(=O)c2cc1F)CC/C3=C\c1ccc(O)c(O)c1`, the half-maximal inhibitory concentration (IC50) in [1] is more than 10 µM. The “Inhibition (active/not active)” value in [11] is “Active”.
`CCN(CC)CCNc1cc2nc3c(cc2cc1F)CC/C3=C\c1ccc(C(C)C)cc1`: the IC50 in test [1] is more than 10 µM. For the same compound, in [11], the “Inhibition (active/not active)” value was “Active”.
Consider `CCN(CC)CCCNc1c2c(nc3ccccc13)/C(=C/c1ccc(C(C)C)cc1)CC2`, for which the IC50 in [1] is 8.7 µM.
Still for that read-out and setting: the figure for `CCCc1ccc(/C=C2\CCn3c2nc2cc(NCCN(CC)CC)c(F)cc2c3=O)cc1` is 3.3 µM.
Regarding `CCN(CC)CCNc1cc2nc3n(c(=O)c2cc1F)CC/C3=C\c1ccc(N(CC)CC)cc1O`, the IC50 is 2.1 µM in test [1] and more than 20 µM in test [12]. Further, the inhibition entry in test [2] was “inactive”. In the test with HCT-116, the result was Active. The inhibition entry in [3] is “Active”.
Regarding `CCc1ccc(/C=C2\CCc3c2nc2ccccc2c3NCCCN(CC)CC)cc1`, the IC50 in test [1] is more than 10 µM. Besides, the “Inhibition (active/not active)” value in test [11] is “Active”.
As for `CC(C)c1ccc(/C=C2\CCc3c2nc2ccccc2c3NCCCN(C)C)cc1`, in test [1], the half-inhibitory concentration (IC50) is more than 10 µM. Also, the “Inhibition (active/not active)” value in test [11] is “Active”.
Take `CCN(CC)CCNc1cc2nc3n(c(=O)c2cc1F)CCC3Cc1ccc(N(C)C)cc1` (centres undefined): the IC50 in test [1] is more than 10 µM. The “Inhibition (active/not active)” value in test [11] is “Active”.
In the case of `CCN(CC)CCNc1cc2nc3n(c(=O)c2cc1F)CCC3Cc1ccc(C(C)(C)C)cc1` (centres undefined), the IC50 in test [1] is more than 10 µM. The “Inhibition (active/not active)” value in test [11] was “Active”.
For `CCN(CC)CCCNc1cc2nc(/C=C/c3ccc(C(C)C)cc3)n(CC(C)C)c(=O)c2cc1F`, the half-maximal inhibitory concentration (IC50) in test [1] stood at 3.6 µM.
As for `CCN(CC)CCNc1cc2nc3n(c(=O)c2cc1F)CC/C3=C\c1ccc(N(C)C)cc1O`, the IC50 in test [1] was 6.4 µM.
In the case of `CCN(CC)CCNc1cc2nc(/C=C/c3ccc(C(C)C)cc3)n(C)c(=O)c2cc1F`, the IC50 in test [1] was 2.2 µM. For the same compound, in test [2], the inhibition entry is “inactive”. For the same compound, the outcome in the test on HCT-116 was Active. Besides, the inhibition result in test [3] is “Active”.
For `CCN(CC)CCNc1cc2nc3n(c(=O)c2cc1F)CC/C3=C\c1ccccc1`, the “Inhibition (active/not active)” value in test [11] was “inactive”.
For `CCN(CC)CCNc1cc2nc3n(c(=O)c2cc1F)CCC3Cc1ccc(N(CC)CC)cc1O` (centres undefined), the “Inhibition (active/not active)” value in test [11] is “inactive”.
For `CCN(CC)CCNc1cc2nc3n(c(=O)c2cc1F)CC/C3=C\c1ccc(C(C)C)cc1O`, the IC50 in test [1] came out at 4 µM.
As for `CCN(CC)CCNc1cc2nc3n(c(=O)c2cc1F)CC/C3=C\c1ccc(N(C)C)cc1`, the half-inhibitory concentration (IC50) in [1] is more than 10 µM. In addition, the “Inhibition (active/not active)” value in test [11] was “Active”.
`CCN(CC)CCNc1cc2nc3n(c(=O)c2cc1F)CC/C3=C\c1ccc(C(C)C)cc1`: in test [1], the IC50 turned out to be 2 µM. The inhibition entry in test [2] and in test [3] was “Active” throughout. Further, in the test on HCT-116, the result was Active.
On to `CCNc1cc2nc(/C=C/c3ccc(C(C)C)cc3)n(CC)c(=O)c2cc1F`, for which the “Inhibition (active/not active)” value in test [11] is “inactive”.
Same read-out and setting: the entry for `CCN(CC)CCCNc1cc2nc3n(c(=O)c2cc1F)CC/C3=C\c1ccccc1` is “inactive”.
On to `CCN(CC)CCNc1ccc2c(=O)n3c(nc2c1)/C(=C/c1ccc(C(C)C)cc1)CC3`, for which, in test [1], the IC50 was determined as 1.3 µM.
With `CCN(CC)CCCNc1cc2nc(/C=C/c3ccc(C(C)C)cc3)n(C)c(=O)c2cc1F`, in test [1], the IC50 is 4.7 µM.
As for `CCN(CC)CCCNc1cc2nc(/C=C/c3ccc(CC(C)C)cc3)[nH]c(=O)c2cc1F`, the IC50 in [1] was 4.7 µM.
As for `CC(=O)NCCNc1cc2nc3n(c(=O)c2cc1F)CC/C3=C\c1ccc(C(C)C)cc1`, the concentration for half-maximal inhibition (IC50) in test [1] is more than 10 µM. Besides, in test [11], the “Inhibition (active/not active)” value was “Active”.
`CCN(CC)CCCCNc1cc2nc3n(c(=O)c2cc1F)CC/C3=C\c1ccc(C(C)C)cc1`: the concentration for half-maximal inhibition (IC50) in test [1] stood at 1.8 µM.

Values taken from ChEMBL document CHEMBL4622970, “Design, Synthesis, and Evaluation of New Quinazolinone Derivatives that Inhibit Bloom Syndrome Protein (BLM) Helicase, Trigger DNA Damage at the Telomere Region, and Synergize with PARP Inhibitors” (J Med Chem, 2020).
